Data reported in ChEMBL document CHEMBL1201862, “PubChem BioAssay data set” (2004).
Calls of active or inactive are those of the source.

How the values were obtained:
[1] = biological target: G-protein coupled receptor 55 (Homo sapiens, UniProt Q9Y2T6); assay: GPR55 antagonists blocking LPI-driven arrestin recruitment, primary screen, imaging, U2OS, beta-arrestin-GFP, LPI agonist (AID 2013); format: functional;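 also: antagonist potency measured as reduced agonist-driven arrestin aggregation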
[2] = biological target: Voltage-dependent T-type calcium channel subunit alpha-1H (Homo sapiens, UniProt O95180); format: functional;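 also: channel activity triggered by adding a high calcium stimulation buffer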
[3] = system: BJ; assay: cytotoxicity toward BJ-TERT fibroblasts, dose response, cell-based, RAS-independent, luminescence (AID 1933); format: functional; conditions: Homo sapiens
[4] = biological target: T1, Heat shock factor protein 1 (Mus musculus, UniProt P38532); assay: inhibition of MG132-induced HSE-luciferase signal, confirmation, cell-based, NIH3T3, luminescence, dose retest (AID 2382); format: functional;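 also: NIH3T3 fibroblasts with HSF1-driven luciferase reporter stressed by proteasome inhibitor MG132; luminescence from HSF1-driven luciferase expression after 8 hours of MG132 stress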
T1 sequence (P38532 whole entry): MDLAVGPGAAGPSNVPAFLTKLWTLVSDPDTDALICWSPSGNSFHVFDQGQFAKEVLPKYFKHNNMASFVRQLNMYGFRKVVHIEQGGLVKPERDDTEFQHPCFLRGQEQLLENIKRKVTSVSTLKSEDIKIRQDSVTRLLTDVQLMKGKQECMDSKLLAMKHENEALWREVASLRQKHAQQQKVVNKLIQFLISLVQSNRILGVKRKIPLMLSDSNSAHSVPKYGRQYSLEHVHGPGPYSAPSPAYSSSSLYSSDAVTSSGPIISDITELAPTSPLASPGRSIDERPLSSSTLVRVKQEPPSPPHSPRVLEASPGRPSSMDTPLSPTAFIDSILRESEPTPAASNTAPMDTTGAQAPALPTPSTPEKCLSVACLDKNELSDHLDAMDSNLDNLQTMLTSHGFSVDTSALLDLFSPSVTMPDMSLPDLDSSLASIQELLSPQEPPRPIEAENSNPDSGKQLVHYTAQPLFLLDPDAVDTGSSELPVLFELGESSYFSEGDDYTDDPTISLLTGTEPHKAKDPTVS

[5] = system: BJ; assay: cells; format: functional, cell-based; conditions: Homo sapiens
[6] = system: BJ; assay: cytotoxicity toward BJ-TERT-LT-ST fibroblasts, dose response, cell-based, RAS-independent, luminescence (AID 1935); format: functional; conditions: Homo sapiens;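 also: BJ fibroblasts immortalized with TERT plus LT and ST oncogenes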
[7] = cytotoxicity toward DRD oncogenic fibroblasts, dose response, cell-based, non-viral oncogenic, luminescence (AID 1934); format: functional; conditions: Homo sapiens
[8] = cytotoxicity in HEK-293T cells, dose response, cytotoxicity control for BCR NF-kB inhibitor project, luminescence, B-cell screen hits (AID 489021); format: functional, cell-based;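 also: HEK-293T cells carrying an NF-kB luciferase reporter; cells exposed to compound for about 14 hours before viability readout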
[9] = system: BJ; assay: cytotoxicity toward Ras-transformed BJeLR fibroblasts, dose response, cell-based, alamar blue fluorescence, cherrypicked samples (AID 2631); format: functional; conditions: Homo sapiens;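 also: confirmatory dose-response assay in RAS-dependent BJ fibroblasts engineered with TERT, LT and ST, with cytotoxicity read by fluorescence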
[10] = biological target: Paired box protein Pax-8 (Homo sapiens, UniProt Q06710); assay: inhibitors of PAX8-driven TPO luciferase reporter, dose response, RMG-I cells, cherry-pick (AID 687027); format: functional, cell-based;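 also: luciferase reporter driven by Pax8 target thyroperoxidase promoter measured by SteadyGlo luminescence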
[11] = non-specific cell cytotoxicity, dose response, cytotoxicity control for PAX8 inhibitor project, plate reader, dry powder samples (AID 743021); format: functional, cell-based
[12] = cells; format: functional, cell-based
[13] = cells; format: functional, cell-based; remark: listed apart in the source
[14] = biological target: Glyceraldehyde-3-phosphate dehydrogenase (Homo sapiens, UniProt P04406)
[15] = biological target: T2, Alkaline phosphatase, tissue-nonspecific isozyme (Homo sapiens, UniProt P05186); assay: human TNAP enzyme inhibitors, SAR follow-up, biochemical, luminescent, dose response (AID 1056)
T2 sequence (P05186 whole entry): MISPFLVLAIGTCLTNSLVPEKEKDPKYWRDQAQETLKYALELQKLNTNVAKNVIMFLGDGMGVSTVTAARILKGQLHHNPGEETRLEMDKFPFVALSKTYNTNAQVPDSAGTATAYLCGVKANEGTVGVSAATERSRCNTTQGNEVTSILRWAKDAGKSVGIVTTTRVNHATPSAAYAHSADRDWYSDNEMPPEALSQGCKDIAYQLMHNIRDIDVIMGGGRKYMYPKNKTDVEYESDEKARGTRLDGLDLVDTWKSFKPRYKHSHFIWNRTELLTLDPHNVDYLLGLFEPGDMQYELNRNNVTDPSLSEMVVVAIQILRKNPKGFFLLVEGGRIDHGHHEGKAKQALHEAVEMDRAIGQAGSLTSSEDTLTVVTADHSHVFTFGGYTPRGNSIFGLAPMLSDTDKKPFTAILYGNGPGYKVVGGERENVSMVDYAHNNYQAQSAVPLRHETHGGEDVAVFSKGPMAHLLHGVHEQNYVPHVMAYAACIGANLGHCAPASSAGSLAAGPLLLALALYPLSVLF

[16] = biological target: Tumor necrosis factor (Homo sapiens, UniProt P01375); assay: TNFa-triggered NF-kB activation inhibitors, SAR follow-up, cell-based, revised (AID 2337); format: functional
[17] = biological target: T3, Nucleotide-binding oligomerization domain-containing protein 1 (Homo sapiens, UniProt Q9Y239); assay: NOD1 signaling inhibitors, SAR follow-up, revised (AID 2333); format: functional
T3 sequence (Q9Y239 whole entry): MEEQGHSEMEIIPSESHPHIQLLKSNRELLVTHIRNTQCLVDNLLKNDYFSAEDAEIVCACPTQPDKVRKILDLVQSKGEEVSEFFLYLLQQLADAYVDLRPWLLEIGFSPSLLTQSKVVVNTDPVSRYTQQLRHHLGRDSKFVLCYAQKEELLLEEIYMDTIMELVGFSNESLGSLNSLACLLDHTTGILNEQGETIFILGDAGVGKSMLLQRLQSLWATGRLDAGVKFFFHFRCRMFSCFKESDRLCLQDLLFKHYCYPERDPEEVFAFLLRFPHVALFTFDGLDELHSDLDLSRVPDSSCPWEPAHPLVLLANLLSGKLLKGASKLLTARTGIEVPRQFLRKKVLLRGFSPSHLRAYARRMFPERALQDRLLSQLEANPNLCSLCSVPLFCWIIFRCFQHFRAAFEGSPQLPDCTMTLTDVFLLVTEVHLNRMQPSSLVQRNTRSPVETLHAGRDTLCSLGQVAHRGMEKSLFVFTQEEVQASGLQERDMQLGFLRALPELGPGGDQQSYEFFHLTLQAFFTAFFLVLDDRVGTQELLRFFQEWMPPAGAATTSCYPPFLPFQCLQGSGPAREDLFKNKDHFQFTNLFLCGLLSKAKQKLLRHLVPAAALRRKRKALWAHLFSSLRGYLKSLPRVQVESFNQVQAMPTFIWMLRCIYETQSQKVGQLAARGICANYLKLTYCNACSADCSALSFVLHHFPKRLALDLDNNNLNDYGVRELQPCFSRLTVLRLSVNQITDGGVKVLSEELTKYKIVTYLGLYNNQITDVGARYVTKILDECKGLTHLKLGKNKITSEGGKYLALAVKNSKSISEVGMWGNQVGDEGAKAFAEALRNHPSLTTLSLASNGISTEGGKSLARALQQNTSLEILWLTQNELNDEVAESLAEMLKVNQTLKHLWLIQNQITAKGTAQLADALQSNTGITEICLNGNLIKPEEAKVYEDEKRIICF

[18] = biological target: Nucleotide-binding oligomerization domain-containing protein 2 (Homo sapiens, UniProt Q9HC29); assay: PubChem AID 2334; format: functional
[19] = system: HEK293; assay: cells; conditions: Homo sapiens;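 also: cells exposed to compound for 14 hours overnight before viability readout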
[20] = biological target: Troponin, cardiac muscle (Homo sapiens, UniProt P19429+P45379+P63316); assay: Fluorescence-based biochemical high throughput dose response assay for activators of the calcium sensitivity of cardiac Regulated Thin Filaments (RTF). [Related pubchem assays (depositor defined):AID493008, AID493018, AID504382, AID504383]; format: protein-complex assay
[21] = biological target: T4, RNA-binding protein pos-1 (Caenorhabditis elegans, UniProt G5EF15); assay: inhibitors of POS-1/mex-3 RNA binding, dose response, biochemical, fluorescence polarization (AID 1964);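 also: purified POS-1 fused to maltose binding protein made in E. coli; potency of compounds blocking POS-1 binding to fluorescent RNA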
T4 sequence (G5EF15 whole entry): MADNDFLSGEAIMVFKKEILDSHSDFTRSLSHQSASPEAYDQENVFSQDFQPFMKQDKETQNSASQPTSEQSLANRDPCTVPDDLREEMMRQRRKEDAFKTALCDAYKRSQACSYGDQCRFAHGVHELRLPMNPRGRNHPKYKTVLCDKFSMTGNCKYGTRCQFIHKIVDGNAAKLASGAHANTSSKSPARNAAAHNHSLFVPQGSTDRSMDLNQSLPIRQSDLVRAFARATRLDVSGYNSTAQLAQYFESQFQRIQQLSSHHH

[22] = biological target: T5, Zinc finger protein mex-5 (Caenorhabditis elegans, UniProt Q9XUB2); assay: MEX-5/TCR-2 RNA interaction inhibitors, dose response, biochemical, C. elegans, fluorescence polarization (AID 1960)
T5 sequence (Q9XUB2 whole entry): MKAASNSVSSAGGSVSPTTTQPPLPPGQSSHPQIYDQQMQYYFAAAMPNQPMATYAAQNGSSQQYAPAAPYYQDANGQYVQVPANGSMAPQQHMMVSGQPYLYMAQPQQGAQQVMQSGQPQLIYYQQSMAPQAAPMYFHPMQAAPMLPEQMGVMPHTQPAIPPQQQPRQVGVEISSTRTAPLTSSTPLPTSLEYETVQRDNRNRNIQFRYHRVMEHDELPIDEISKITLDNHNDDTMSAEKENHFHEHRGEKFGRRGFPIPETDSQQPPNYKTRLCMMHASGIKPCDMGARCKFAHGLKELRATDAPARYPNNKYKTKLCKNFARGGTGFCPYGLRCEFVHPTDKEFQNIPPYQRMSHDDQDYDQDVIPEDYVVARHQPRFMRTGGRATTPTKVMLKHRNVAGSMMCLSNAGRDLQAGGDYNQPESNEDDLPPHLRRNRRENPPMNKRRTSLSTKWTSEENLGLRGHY

[23] = biological target: DNA dC->dU-editing enzyme APOBEC-3G (Homo sapiens, UniProt Q9HC16); assay: Dose Response confirmation of small molecule APOBEC3G DNA Deaminase Inhibitors via a fluorescence-based single-stranded DNA deaminase assay. [Related pubchem assays (depositor defined):AID493012, AID493028]; format: functional
[24] = biological target: FAD-linked sulfhydryl oxidase ALR (Homo sapiens, UniProt P55789); assay: inhibitors of human ALR sulfhydryl oxidase, dose response, biochemical, H2O2 detection, luminescence, cherry-pick (AID 493248)
[25] = biological target: DNA damage-inducible transcript 3 protein (Mus musculus, UniProt P35639); format: functional, Cricetulus griseus
[26] = biological target: T6, X-box-binding protein 1 (Homo sapiens, UniProt P17861); format: functional, Cricetulus griseus;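 also: confirmatory dose-response counter-screen serving a CHOP assay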
T6 sequence (P17861 whole entry): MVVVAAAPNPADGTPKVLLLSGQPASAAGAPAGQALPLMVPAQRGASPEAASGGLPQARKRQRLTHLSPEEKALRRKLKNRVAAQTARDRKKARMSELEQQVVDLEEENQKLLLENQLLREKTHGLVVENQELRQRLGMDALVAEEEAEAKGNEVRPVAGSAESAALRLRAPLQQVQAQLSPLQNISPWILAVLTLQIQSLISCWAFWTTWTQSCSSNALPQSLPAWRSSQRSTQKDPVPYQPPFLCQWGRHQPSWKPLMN

[27] = Luminescence Cell-Based Dose Response HTS to Identify Activators of Luciferase Translation or Activity in H4 […] Cells. [Related pubchem assays: 1829 (Project Summary), 1814 (Primary HTS)]; format: functional
[28] = system: H4; assay: Luminescence Cell-Based Dose Response HTS to Identify Activators of 5'UTR Stem-Loop Driven Prion Protein mRNA Translation in H4 Neuroglioblastoma Cells. [Related pubchem assays: 1829 (Project Summary), 1814 (Primary HTS)]; format: functional; conditions: Homo sapiens
[29] = system: HeLa; assay: HeLa cell cytotoxicity, dose response, cytotoxicity control for MITF activator project, CellTiter-Glo luminescence, cherry-pick samples (AID 540259); format: functional, cell-based; conditions: Homo sapiens

## Cc1ccc(CNCc2cc3c(C(C)(C)C)nn(-c4ccccc4)c3[nH]c2=O)cc1
[1]
  IC50: 1.92 µM (active)

## CCN(CCCNC(=O)CCc1nc(-c2ccc(C)cc2)no1)c1cccc(C)c1
[2]
  EC50: 2.54 µM (active)

## CCCC(C)NC(=O)c1ccc2[nH]c3c(c2c1)CC(C)CC3 (configuration not stated)
[2]
  EC50: 60.1 µM (active)

## COC(=O)[C@@H]1Cc2c([nH]c3ccccc23)C(C)(C)N1C(=O)CCl
[3]
  EC50: 2.4 µM (inconclusive)
[4]
  EC50: 4.08 µM (active)
[5]
  EC50: 3.16 µM (inconclusive)
[6]
  EC50: > 75 µM (inconclusive)
[7]
  EC50: 2.65 µM (inconclusive)
[8]
  IC50: > 80 µM (inactive)
[9]
  EC50: 18.1 µM (active)
[10]
  AC50: 1.26 µM (active)
[11]
  AC50: 3.27 µM (active)

## Cc1sc(NC(=O)c2ccco2)c(CN2CCC(C)CC2)c1C
[12]
  EC50: > 350 µM (not active)
[13]
  EC50: > 350 µM (not active)
[2]
  EC50: 7.78 µM (active)

## Cn1c(=O)n(C/C=C/c2ccccc2)c(=O)c2c1nc1n2CCCN1c1ccc(F)cc1
[1]
  IC50: 0.624 µM (active)

## COc1ccc(Br)cc1S(=O)(=O)Nc1ccc2ncccc2c1
[14]
  IC50: > 100 µM (not active)
[15]
  IC50: > 100 µM (inactive)

## CC(C)c1cc(C(C)C)c(S(=O)(=O)Nc2cnc3ccccc3c2)c(C(C)C)c1
[14]
  IC50: > 100 µM (not active)
[15]
  IC50: > 100 µM (inactive)

## O=C(NC1CCCc2c1cnn2-c1ccccc1F)c1cc(-c2ccccc2)n[nH]1 (configuration not stated)
[16]
  IC50: 10.7 µM (active)
[17]
  IC50: 16.9 µM (active)
[18]
  IC50: > 20 µM (inactive)
[19]
  IC50: > 20 µM (inactive)

## O=C(NCc1ccc(Cl)cc1)C1CCN(c2cnccn2)CC1
[20]
  EC50: > 71.4 µM (inactive)

## CN(C)CCN(C)Cc1c2ccccc2c(CN(C)CCN(C)C)c2ccccc12
[21]
  EC50: 12.1 µM (active)
[22]
  EC50: 10.2 µM (active)
[20]
  EC50: 34.3 µM (inactive)

## Sc1nnc(-c2ccccn2)n1/N=C/c1cccc2ccccc12
[23]
  IC50: 2.35 µM (active)
[24]
  AC50: 10.8 µM (active)

## Cc1n[nH]c(NC=C2C(=O)CC(c3ccco3)CC2=O)c1-c1ccc(Cl)cc1 (configuration not stated)
[25]
  Absolute IC50 (CHOP): 10 µM
[26]
  Absolute IC50 (XBP1): 10 µM

## Cc1cc2c([nH]c3ccccc32)c2c1OC(C)(C)C=C2 [GRINIMIBINE]
[27]
  EC50: 27.7 µM (active)
[28]
  EC50: 20.6 µM (active)
[25]
  Absolute IC50 (CHOP): 10 µM
[26]
  Absolute IC50 (XBP1): 10 µM
[29]
  AC50: 41.3 µM (active)
